Activity calls are given as the source filed them. The rule behind the calls is not given here.
What was measured:
[1] = biological target: Mitogen-activated protein kinase 10 (Homo sapiens) (UniProt P53779); test: Inhibition of ADP(ATP)-biotin probe binding to JNK3 in human Kelly cells at 1 uM incubated for 6 hrs by KiNativ profiling analysis; type: cell-based
[2] = biological target: Ribosomal protein S6 kinase alpha-3 (Homo sapiens, UniProt P51812); test: Inhibition of human RSK2 by Invitrogen ADAPTA or Z'LYTE biochemical kinase assay
Sequence of Ribosomal protein S6 kinase alpha-3 (P51812 whole entry): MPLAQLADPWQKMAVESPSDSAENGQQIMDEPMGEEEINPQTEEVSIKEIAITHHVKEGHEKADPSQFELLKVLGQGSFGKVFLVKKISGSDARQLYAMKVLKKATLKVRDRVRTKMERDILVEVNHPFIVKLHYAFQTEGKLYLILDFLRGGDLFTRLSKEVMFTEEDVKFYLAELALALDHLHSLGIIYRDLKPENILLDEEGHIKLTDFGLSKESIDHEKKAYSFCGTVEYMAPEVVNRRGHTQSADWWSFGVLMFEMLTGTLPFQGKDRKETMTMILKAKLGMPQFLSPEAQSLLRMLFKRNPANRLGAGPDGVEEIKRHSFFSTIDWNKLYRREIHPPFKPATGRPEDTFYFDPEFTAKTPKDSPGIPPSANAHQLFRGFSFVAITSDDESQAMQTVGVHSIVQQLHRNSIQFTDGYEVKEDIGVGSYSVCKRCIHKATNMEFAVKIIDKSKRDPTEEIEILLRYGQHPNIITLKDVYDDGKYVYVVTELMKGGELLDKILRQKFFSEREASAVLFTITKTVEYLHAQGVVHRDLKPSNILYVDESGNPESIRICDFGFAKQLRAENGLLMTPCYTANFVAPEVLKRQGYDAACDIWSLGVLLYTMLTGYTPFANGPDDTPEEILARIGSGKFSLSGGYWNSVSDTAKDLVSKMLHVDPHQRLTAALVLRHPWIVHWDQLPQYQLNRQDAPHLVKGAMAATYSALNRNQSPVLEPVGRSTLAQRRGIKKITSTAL

[3] = biological target: T1, Cyclin-dependent kinase 12/13 (Homo sapiens) (UniProt Q14004+Q9NYV4); test: Inhibition of CDK12/13 in human Jurkat cells assessed as BRCA2 gene expression at 0.5 to 1 uM incubated for 4 hrs by RT-qPCR analysis; type: cell-based; parameters: scale not given: the % may be the effect or the level left; details: dose 0.5-1 µM
[4] = biological target: T1, Cyclin-dependent kinase 12/13 (Homo sapiens); test: Inhibition of THZ1-biotin binding from CDK12/13 in human Jurkat cells incubated for 3 hrs followed by drug wash-out for 24 hrs by competitive pull down assay; type: cell-based
[5] = biological target: Ribosomal protein S6 kinase alpha-1 (Homo sapiens) (UniProt Q15418); test: Inhibition of ADP(ATP)-biotin probe binding to RSK1 domain 1 in human Kelly cells at 1 uM incubated for 6 hrs by KiNativ profiling analysis; type: cell-based
Sequence of Ribosomal protein S6 kinase alpha-1 (Homo sapiens) (Q15418 whole entry, the tested form may be a part): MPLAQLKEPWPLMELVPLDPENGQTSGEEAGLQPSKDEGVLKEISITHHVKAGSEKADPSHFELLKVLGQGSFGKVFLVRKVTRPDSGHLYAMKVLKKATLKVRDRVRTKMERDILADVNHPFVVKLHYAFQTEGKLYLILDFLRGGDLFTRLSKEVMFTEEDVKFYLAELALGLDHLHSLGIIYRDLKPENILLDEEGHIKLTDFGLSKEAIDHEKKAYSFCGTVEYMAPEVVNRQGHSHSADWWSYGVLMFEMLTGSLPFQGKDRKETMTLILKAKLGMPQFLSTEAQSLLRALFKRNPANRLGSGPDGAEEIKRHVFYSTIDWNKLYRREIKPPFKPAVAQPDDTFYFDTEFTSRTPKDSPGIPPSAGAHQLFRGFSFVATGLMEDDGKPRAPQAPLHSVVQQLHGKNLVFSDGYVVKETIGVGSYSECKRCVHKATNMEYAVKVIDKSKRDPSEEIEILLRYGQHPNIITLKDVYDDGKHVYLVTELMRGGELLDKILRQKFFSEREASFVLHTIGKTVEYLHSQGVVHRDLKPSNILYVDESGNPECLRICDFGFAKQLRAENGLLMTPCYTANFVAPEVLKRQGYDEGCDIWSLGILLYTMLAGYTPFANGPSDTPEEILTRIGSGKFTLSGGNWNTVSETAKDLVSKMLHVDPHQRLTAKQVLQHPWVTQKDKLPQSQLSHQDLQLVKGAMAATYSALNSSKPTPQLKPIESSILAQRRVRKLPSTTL

[6] = biological target: T1, Cyclin-dependent kinase 12/13 (Homo sapiens); test: Inhibition of CDK12/13 in human Jurkat cells assessed as BRCA1 gene expression at 0.5 to 1 uM incubated for 4 hrs by RT-qPCR analysis; type: cell-based; parameters: scale not given: the % may be the effect or the level left; details: dose 0.5-1 µM
[7] = biological target: Cyclin-dependent kinase 7/ cyclin H (Homo sapiens, UniProt P50613); test: Inhibition of CDK7/Cyclin H (unknown origin); type: protein-complex assay
Sequence of Cyclin-dependent kinase 7/ cyclin H (P51946 whole entry): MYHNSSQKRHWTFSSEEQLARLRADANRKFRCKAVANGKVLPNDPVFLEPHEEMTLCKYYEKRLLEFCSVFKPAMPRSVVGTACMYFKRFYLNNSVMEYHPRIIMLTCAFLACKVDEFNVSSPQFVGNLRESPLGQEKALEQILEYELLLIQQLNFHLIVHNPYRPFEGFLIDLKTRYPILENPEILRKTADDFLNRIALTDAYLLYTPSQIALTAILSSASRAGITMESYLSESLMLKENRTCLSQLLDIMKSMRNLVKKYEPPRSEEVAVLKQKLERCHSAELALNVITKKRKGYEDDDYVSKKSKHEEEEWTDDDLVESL
Sequence of Cyclin-dependent kinase 7/ cyclin H (P50613 whole entry): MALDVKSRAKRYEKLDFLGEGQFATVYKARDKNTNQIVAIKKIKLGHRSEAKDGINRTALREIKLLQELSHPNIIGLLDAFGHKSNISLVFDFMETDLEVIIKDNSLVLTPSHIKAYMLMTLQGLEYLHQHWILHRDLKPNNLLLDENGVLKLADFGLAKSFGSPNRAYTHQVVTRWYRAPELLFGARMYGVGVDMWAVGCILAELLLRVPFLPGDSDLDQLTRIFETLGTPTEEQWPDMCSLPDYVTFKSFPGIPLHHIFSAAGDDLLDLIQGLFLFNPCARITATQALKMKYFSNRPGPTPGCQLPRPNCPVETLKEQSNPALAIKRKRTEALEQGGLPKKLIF

[8] = biological target: Cyclin-dependent kinase 7 (Homo sapiens) (UniProt P50613); test: Inhibition of THZ1-biotin binding from CDK7 in human Jurkat cells at 500 nM incubated for 6 hrs by CyclinH antibody based competitive pull down assay; type: cell-based
Sequence of Cyclin-dependent kinase 7 (Homo sapiens) (P50613 whole entry): as above

[9] = biological target: DNA-dependent protein kinase catalytic subunit (Homo sapiens, UniProt P78527); test: Inhibition of ADP(ATP)-biotin probe binding to DNAPK in human Kelly cells at 1 uM incubated for 6 hrs by KiNativ profiling analysis; type: cell-based
[10] = Downregulation of RNA polymerase 2 CTD phosphorylation at Ser5 residue in human Jurkat cells at 1 uM incubated for 6 hrs by immunoblotting analysis; type: functional
[11] = Downregulation of RNA polymerase 2 CTD phosphorylation at Ser7 residue in human Jurkat cells at 0.5 uM incubated for 6 hrs by immunoblotting analysis; type: functional
[12] = biological target: T1, Cyclin-dependent kinase 12/13 (Homo sapiens); test: Inhibition of CDK12/13 in human jurkat cells assessed as reduction in RNA polymerase 2 CTD phosphorylation at Ser2 residue at 0.5 uM measured after 6 hrs by immunoblotting analysis; type: cell-based
[13] = biological target: Mitogen-activated protein kinase 8 (Homo sapiens) (UniProt P45983); test: Inhibition of ADP(ATP)-biotin probe binding to JNK1 in human Kelly cells at 1 uM incubated for 6 hrs by KiNativ profiling analysis; type: cell-based
Sequence of Mitogen-activated protein kinase 8 (Homo sapiens) (P45983 whole entry): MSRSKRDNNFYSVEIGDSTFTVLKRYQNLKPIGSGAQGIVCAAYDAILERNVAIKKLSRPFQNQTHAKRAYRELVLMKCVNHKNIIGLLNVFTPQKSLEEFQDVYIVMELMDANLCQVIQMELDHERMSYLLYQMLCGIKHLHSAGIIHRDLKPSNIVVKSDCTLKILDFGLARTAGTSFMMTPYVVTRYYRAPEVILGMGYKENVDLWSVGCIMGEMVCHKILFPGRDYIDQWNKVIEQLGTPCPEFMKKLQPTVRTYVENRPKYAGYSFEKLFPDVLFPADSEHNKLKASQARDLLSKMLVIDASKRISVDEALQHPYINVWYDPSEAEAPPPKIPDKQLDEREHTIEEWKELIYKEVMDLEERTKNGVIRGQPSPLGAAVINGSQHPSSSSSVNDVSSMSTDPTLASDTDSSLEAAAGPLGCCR

[14] = Downregulation of RNA polymerase 2 CTD phosphorylation at Ser7 residue in human Jurkat cells at 1 uM incubated for 6 hrs by immunoblotting analysis; type: functional
[15] = Oral bioavailability in Swiss albino mouse at 10 mg/kg measured upto 24 hrs by LC-MS/MS analysis; type: ADME, organism-based; details: in vivo
[16] = biological target: Serine/threonine-protein kinase 16 (Homo sapiens) (UniProt O75716); test: Inhibition of ADP(ATP)-biotin probe binding to MPSK1 in human Kelly cells at 1 uM incubated for 6 hrs by KiNativ profiling analysis; type: cell-based
Sequence of Serine/threonine-protein kinase 16 (Homo sapiens) (O75716 whole entry): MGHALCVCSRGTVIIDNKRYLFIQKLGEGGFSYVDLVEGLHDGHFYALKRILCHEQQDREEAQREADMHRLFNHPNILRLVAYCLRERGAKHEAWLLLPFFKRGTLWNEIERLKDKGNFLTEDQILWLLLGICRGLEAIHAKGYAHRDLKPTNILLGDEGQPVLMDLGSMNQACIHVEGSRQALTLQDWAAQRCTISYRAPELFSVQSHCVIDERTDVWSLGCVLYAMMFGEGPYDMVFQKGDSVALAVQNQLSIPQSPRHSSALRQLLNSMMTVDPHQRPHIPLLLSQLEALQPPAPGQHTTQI

[17] = Downregulation of RNA polymerase 2 in human Jurkat cells at 1 uM measured after 6 hrs by immunoblotting analysis; type: functional
[18] = biological target: T1, Cyclin-dependent kinase 12/13 (Homo sapiens); test: Inhibition of CDK12/13 in human jurkat cells assessed as reduction in RNA polymerase 2 CTD phosphorylation at Ser2 residue at 1 uM measured after 6 hrs by immunoblotting analysis; type: cell-based
[19] = Downregulation of RNA polymerase 2 in human Jurkat cells at 5 uM measured after 6 hrs by immunoblotting analysis; type: functional
[20] = biological target: Ribosomal protein S6 kinase alpha-4 (Homo sapiens) (UniProt O75676); test: Inhibition of ADP(ATP)-biotin probe binding to MSK2 domain 1 in human Kelly cells at 1 uM incubated for 6 hrs by KiNativ profiling analysis; type: cell-based
Sequence of Ribosomal protein S6 kinase alpha-4 (Homo sapiens) (O75676 whole entry, looked up, the tested form may be a part): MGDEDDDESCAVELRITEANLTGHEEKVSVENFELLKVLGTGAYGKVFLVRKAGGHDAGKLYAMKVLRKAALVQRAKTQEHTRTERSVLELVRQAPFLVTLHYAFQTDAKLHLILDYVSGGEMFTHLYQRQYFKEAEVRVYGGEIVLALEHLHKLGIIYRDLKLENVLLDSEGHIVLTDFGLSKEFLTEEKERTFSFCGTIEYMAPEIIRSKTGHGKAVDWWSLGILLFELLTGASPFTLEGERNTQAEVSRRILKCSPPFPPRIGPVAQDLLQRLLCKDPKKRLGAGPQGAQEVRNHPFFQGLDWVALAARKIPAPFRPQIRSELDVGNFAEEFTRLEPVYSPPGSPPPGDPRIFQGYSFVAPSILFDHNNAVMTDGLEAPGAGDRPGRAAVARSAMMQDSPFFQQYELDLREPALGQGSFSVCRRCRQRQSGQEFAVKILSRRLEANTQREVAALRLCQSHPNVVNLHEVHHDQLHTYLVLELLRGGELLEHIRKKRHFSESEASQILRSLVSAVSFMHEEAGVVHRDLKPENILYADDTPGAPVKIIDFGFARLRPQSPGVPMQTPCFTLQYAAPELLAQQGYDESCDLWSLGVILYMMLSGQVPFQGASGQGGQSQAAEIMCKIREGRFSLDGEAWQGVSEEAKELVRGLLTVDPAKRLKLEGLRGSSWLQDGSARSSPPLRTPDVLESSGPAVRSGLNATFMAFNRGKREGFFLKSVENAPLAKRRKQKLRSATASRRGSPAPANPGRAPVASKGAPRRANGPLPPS

[21] = AUClast in Swiss albino mouse at 3 mg/kg, iv measured upto 24 hrs by LC-MS/MS analysis; type: ADME, organism-based; parameters: route intravenous, dose 3 mg/kg, time <=24; details: in vivo
TC-71 = test: Antitumor activity against human TC71 cells xenografted in nude mouse assessed as suppression of tumor growth at 10 mg/kg, ip for 21 days by caliper analysis; type: functional, organism-based; details: time 21.0 day
[22] = Half life in Swiss albino mouse at 3 mg/kg, iv measured upto 24 hrs by LC-MS/MS analysis; type: ADME, organism-based; details: in vivo
[23] = biological target: Cyclin-dependent kinase 7 (Homo sapiens) (UniProt P50613); test: Inhibition of THZ1-biotin binding from CDK7 in human Jurkat cells at 5 uM incubated for 6 hrs by CyclinH antibody based competitive pull down assay; type: cell-based
[24] = Selectivity ratio of IC50 for human Kelly cells harboring CDK12 C1039F mutant to IC50 for human Kelly cells harboring wild type CDK12; type: functional
[25] = Metabolic stability in mouse liver microsomes assessed as half life; type: ADME, Microsome

Sequence of Mitogen-activated protein kinase 10 (Homo sapiens) (P53779 whole entry): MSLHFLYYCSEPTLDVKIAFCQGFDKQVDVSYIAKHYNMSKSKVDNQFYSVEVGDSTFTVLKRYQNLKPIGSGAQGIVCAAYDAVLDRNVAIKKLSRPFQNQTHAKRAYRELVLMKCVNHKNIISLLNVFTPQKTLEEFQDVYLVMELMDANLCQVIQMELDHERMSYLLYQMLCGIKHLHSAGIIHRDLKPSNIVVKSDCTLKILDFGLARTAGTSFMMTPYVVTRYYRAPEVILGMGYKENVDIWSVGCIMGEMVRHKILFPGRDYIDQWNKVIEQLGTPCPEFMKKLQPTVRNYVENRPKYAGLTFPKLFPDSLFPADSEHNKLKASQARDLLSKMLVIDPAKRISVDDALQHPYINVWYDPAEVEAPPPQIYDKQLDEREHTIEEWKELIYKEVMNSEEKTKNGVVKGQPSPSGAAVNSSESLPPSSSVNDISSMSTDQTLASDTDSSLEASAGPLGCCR

inhibition [1]: 45.9% | IC50 [2]: 4500 nM | Activity [3]: 30% | inhibition [4]: Active | inhibition [5]: 35.4% | Activity [6]: 30% | IC50 [7]: 187 nM | inhibition [8]: inactive | inhibition [9]: 38.3% | inhibition [12]: 45% | inhibition [13]: 45.9% | F [15]: 17% | inhibition [16]: 42.4% | inhibition [18]: 78% | inhibition [20]: 40.3% | AUClast [21]: 1832 ng·h/mL | t1/2 [22]: 2.2 h | inhibition [23]: Active | t1/2 [25]: 8 min
SMILES: CN(C)C/C=C/C(=O)Nc1ccc(O[C@@H]2CCC[C@@H](Nc3ncc(Cl)c(-c4c[nH]c5ccccc45)n3)C2)cc1
inhibition at 1 µM [10]: 32% | inhibition at 0.5 µM [11]: 0% | inhibition at 1 µM [14]: 41% | inhibition at 1 µM [17]: 13% | inhibition at 5 µM [19]: 38% | Activity (TC-71): Active | Ratio IC50 [24]: 5
